Test results taken from patent publication US6958345B2, “2-hydroxymethylcyclopropylidene methylpurines and -pyrimidines as antiviral agents” (The Regents of the University of Michigan, priority 1997, dated 2005).

Test system: HHV-6
Experiment: HHV-6 ELISA in HSB-2 cells
Assay type: cell-based, human herpes virus 6 (HHV 6)
Details: Homo sapiens, HSB2
Experimental: (c) HHV-6. In this case, enzyme-linked immunosorbent assay (ELISA) was performed in covalent amine plates (Costar, Cambridge, Mass.). The plates were activated by the addition of a homobifunctional crosslinking agent, bis(sulfosuccinimidyl) suberate, which was dissolved at 1 mg/mL in 30 mL of phosphate buffered saline (PBS: 137 mM NaCl, 2.7 mM KCl, 4.3 mM Na2HPO4, 1.4 mM KH2PO4, pH 7.4) and 300 μL of the crosslinker was added to each well in the covalent plate. The crosslinker reacted with the amine function on the plate for 30 min at room temperature. The byproduct, sodium N-hydroxysuccinimide sulfite, was removed by decanting and washing the plate twice with PBS. Samples consisting of 150 μl of mixed suspended HSB2 cells from the original drug-treated plate were solubilized in an equal volume of 10% Triton X-100 in coating buffer (15 mM Na2CO3, […] NaHCO3, pH 9.6). The plate was covered and then incubated for 1 h at 37° C. in a 5% CO2 atmosphere. These binding conditions facilitated covalent attachment of the antigen to the free end of the crosslinker.
After covalent binding, the antigen solution was decanted and the plate was washed six times in HEPES buffered saline (Shipman, C., Jr., Proc. Soc. Exp. Biol. 130:305-310 (1969)) with 0.05% Tween 20 (HBS-T ), soaking for three min for each wash. […] Absorbance in each well was determined at 450/570 nm.

IC50: 15 µM
Structure (SMILES): O=C(O)P(=O)(O)O [Foscarnet, reference compound]
